# Laboratory results published in US10227331B2 (priority 2015, dated 2019).
# How the values were obtained:
# [1] = tested on: P. aeruginosa expressing IMP-1, efflux− (MB9799); assay: Efflux: concentration of MBL inhibitor which restores susceptibility to imipenem; type: cell-based, Pseudomonas aeruginosa; details: imipenem at 2 μg/mL, in the presence of a class A, C, D serine β-lactamase inhibitor closely related to relebactam
# Excerpt: (§1) The strain background is Pseudomonas aeruginosa PAO1.
# [2] = tested on: Escherichia coli expressing NDM-1 (CLB30005, CLB30016); type: cell-based; details: with imipenem 1 μg/ml, 95% inhibition of bacterial growth; for Escherichia coli MITC95: NDM-1 (CLB30016)
# Outline: (§2)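 Clinical strains grown overnight on blood agar, then diluted 1:100 in 1.1× CAMHB and exposed to test compound with imipenem at 1 μg/ml. Incubation was 22–24 h at 35° C; growth was read by absorbance to find the compound concentration restoring imipenem susceptibility.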
# [3] = tested on: Klebsiella pneumoniae expressing VIM-1 (IHMA599644); type: cell-based; details: with imipenem 1 μg/ml, 95% inhibition of bacterial growth; for Klebsiella pneumoniae MITC95: VIM-1 (IHMA599644)
# Outline: as §2
# [4] = tested on: Serratia marcescens expressing IMP-1 (CL5741); type: cell-based; details: with imipenem 1 μg/ml, 95% inhibition of bacterial growth; for Serratia marcescens MITC95: IMP-1 (CL5741)
# Outline: as §2
# [5] = tested on: P. aeruginosa expressing IMP-1, efflux+ (MB9798); type: cell-based, Pseudomonas aeruginosa; details: for P. aeruginosa expressing IMP-1, efflux+ (MB9798) MITC95: imipenem at 2 μg/mL, in the presence of a class A, C, D serine β-lactamase inhibitor closely related to relebactam; for Efflux ratio: ratio MITC95 PA_9798/MITC95 PA_9799
# Excerpt: as §1
# VIM-1 = VIM-1 (Pseudomonas aeruginosa (strain ATCC 15692 / DSM 22644 / CIP 104116 / JCM 14847 / LMG 12228 / 1C / PRS 101 / PAO1), UniProt A0A0F7KYQ8); assay: biochemical; details: CCF2-FA substrate, 2 hours at 25° C
# Outline: (§3)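 Class B activity is measured in the presence of compound by fluorescence with CCF2-FA after a 2-hour incubation at 25° C. IC50 is taken from a 4-parameter fit of semi-logarithmic dose-response data.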
# NDM-1 = NDM-1 (Klebsiella pneumoniae, UniProt C7C422); assay: biochemical; type: biochemical; details: CCF2-FA substrate, 2 hours at 25° C; read-out: NDM-1 IC50
# Outline: as §3
# IMP-1 = IMP-1 (Serratia marcescens, UniProt P52699); assay: biochemical; type: biochemical; details: CCF2-FA substrate, 2 hours at 25° C; read-out: IMP-1 IC50
# Outline: as §3
# Sequence of NDM-1 (C7C422 whole entry, looked up, species assumed): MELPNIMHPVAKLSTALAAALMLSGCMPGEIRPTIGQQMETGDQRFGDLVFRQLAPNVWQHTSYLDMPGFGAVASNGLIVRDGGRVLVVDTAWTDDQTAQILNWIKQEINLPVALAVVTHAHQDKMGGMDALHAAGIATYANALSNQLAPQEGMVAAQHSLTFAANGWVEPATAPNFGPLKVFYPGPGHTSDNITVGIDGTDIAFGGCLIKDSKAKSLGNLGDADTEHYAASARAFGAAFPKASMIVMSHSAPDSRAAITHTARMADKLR
# Sequence of IMP-1 (P52699 whole entry, looked up, species assumed): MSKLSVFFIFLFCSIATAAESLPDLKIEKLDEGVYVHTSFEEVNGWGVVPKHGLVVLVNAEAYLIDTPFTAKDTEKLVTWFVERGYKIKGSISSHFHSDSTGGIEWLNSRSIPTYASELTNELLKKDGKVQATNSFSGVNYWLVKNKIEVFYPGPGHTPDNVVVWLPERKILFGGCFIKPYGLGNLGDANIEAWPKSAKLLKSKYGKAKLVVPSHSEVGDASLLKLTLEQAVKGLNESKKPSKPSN
SMILES,"P. aeruginosa expressing IMP-1, efflux− (MB9799) MITC95 [1] [µM]",Escherichia coli expressing NDM-1 (CLB30016) MITC95 [2] [µM],Klebsiella pneumoniae expressing VIM-1 (IHMA599644) MITC95 [3] [µM],Serratia marcescens expressing IMP-1 (CL5741) MITC95 [4] [µM],"P. aeruginosa expressing IMP-1, efflux+ (MB9798) MITC95 [5] [µM]",Efflux ratio [5],IC50 (VIM-1) [nM],IC50 (NDM-1) [nM],IC50 (IMP-1) [nM],Escherichia coli MITC95 [2] [µM],Klebsiella pneumoniae MITC95 [3] [µM],Serratia marcescens MITC95 [4] [µM]
"NCCS(=O)(=O)c1ccc(-c2ccc3c(c2)C(=O)NC3)c(-c2nnn[nH]2)c1S(N)(=O)=O.O=C(O)C(F)(F)F [Example 140, 2-((4-(3-oxoisoindolin-5-yl)-2-sulfamoyl-3-(1H-tetrazol-5-yl)phenyl)sulfonyl)ethanaminium 2,2,2-trifluoroacetate]",0.7813,1.563,1.563,1.563,3.125,4.00,0.223,0.844,0.488,,,
"NCCS(=O)(=O)c1ccc(-c2cccc3cn[nH]c23)c(-c2nnn[nH]2)c1S(N)(=O)=O.O=C(O)C(F)(F)F [Example 173, 2-((4-(1H-indazol-7-yl)-2-sulfamoyl-3-(1H-tetrazol-5-yl)phenyl)sulfonyl)ethanaminium 2,2,2-trifluoroacetate]",0.4453,0.25,0.8906,0.8906,0.8906,2.00,0.264,0.338,0.16,,,
"NCCS(=O)(=O)c1ccc(-c2cccc3sc(C(=O)O)nc23)c(-c2nn[nH]n2)c1S(N)(=O)=O [Example 88, 4-(4-(2-aminoethylsulfonyl)-3-sulfamoyl-2-(2H-tetrazol-5-yl)phenyl)benzo[d]thiazole-2-carboxylic acid]",3.125,1.563,12.5,6.25,6.25,2.00,0.158,0.0522,0.144,,,
"NS(=O)(=O)c1c(S(=O)(=O)C2CNC2)ccc(-c2cccc3c2CNC3=O)c1-c1nnn[nH]1.O=C(O)C(F)(F)F [Example 113, 3-((4-(1-oxoisoindolin-4-yl)-2-sulfamoyl-3-(1H-tetrazol-5-yl)phenyl)sulfonyl)azetidin-1-ium 2,2,2-trifluoroacetate]",1.563,1.563,6.25,3.125,12.5,8.00,0.164,0.137,6.06,,,
"NC[C@H](O)CS(=O)(=O)c1ccc(-c2ccc(N)nc2)c(-c2nn[nH]n2)c1S(N)(=O)=O [Example 365, (S)-6-((3-amino-2-hydroxypropyl)sulfonyl)-3-(6-aminopyridin-3-yl)-2-(2H-tetrazol-5-yl) benzenesulfonamide]",0.7813,,,,1.172,1.50,0.632,1.53,1.21,0.293,2.344,0.7813
"CS(=O)(=O)c1ccc([C@H]2CC[C@H](N)CC2)c(-c2nnn[nH]2)c1S(N)(=O)=O [Example 210, 3-((1r,4r)-4-aminocyclohexyl)-6-(methylsulfonyl)-2-(1H-tetrazol-5-yl) benzenesulfonamide]",0.7813,3.125,3.125,1.563,12.5,16.00,0.566,32.2,7.76,,,
"NCCS(=O)(=O)c1ccc(-c2ccc3cccnc3c2)c(-c2nnn[nH]2)c1S(N)(=O)=O.O=C(O)C(F)(F)F [Example 159, 2-((4-(quinolin-7-yl)-2-sulfamoyl-3-(1H-tetrazol-5-yl)phenyl)sulfonyl)ethanaminium 2,2,2-trifluoroacetate]",1.563,1.563,3.125,3.125,12.5,8.00,0.264,1.1,0.487,,,
"Nc1nc2c(-c3ccc(S(=O)(=O)[C@@H]4CN[C@H](CO)C4)c(S(N)(=O)=O)c3-c3nn[nH]n3)cccc2s1 [Example 349, 3-(2-Aminobenzo[d]thiazol-4-yl)-6-(((3 S,5S)-5-(hydroxymethyl)pyrrolidin-3-yl)sulfonyl)-2-(2H-tetrazol-5-yl)benzenesulfonamide]",1.563,,,,1.563,1.00,0.452,0.0659,0.22,3.125,3.125,1.563
"CSc1ccc(-c2ccc(C3CCNCC3)cc2)c(-c2nnn[nH]2)c1S(N)(=O)=O [Example 234, 4-(Methylthio)-4′-(piperidin-4-yl)-2-(1H-tetrazol-5-yl)-[1,1′-biphenyl]-3-sulfonamide]",0.7813,3.125,12.5,3.125,50,64.00,13.9,15.7,4.37,,,
"Nc1nc2c(-c3ccc(S(=O)(=O)[C@@H]4CCNC4)c(S(N)(=O)=O)c3-c3nn[nH]n3)cccc2o1 [Example 189, 3-(2-aminobenzo[d]oxazol-4-yl)-6-((R)-pyrrolidin-3-ylsulfonyl)-2-(2H-tetrazol-5-yl)benzenesulfonamide]",0.7813,1.563,1.563,1.563,0.7813,1.00,0.419,0.219,0.332,,,
"NCCS(=O)(=O)c1ccc(-c2ccc(-c3nn[nH]n3)cc2)c(-c2nnn[nH]2)c1S(N)(=O)=O.O=C(O)C(F)(F)F [Example 151, 2-((3-sulfamoyl-2-(1H-tetrazol-5-yl)-4′-(2H-tetrazol-5-yl)-[1,1′-biphenyl]-4-yl)sulfonyl)ethanaminium 2,2,2-trifluoroacetate]",3.125,12.5,25,12.5,12.5,4.00,0.544,0.271,0.191,,,
